Test results taken from patent US11666570B2, “Diagnosis and regulation of epidermal differentiation and cancer cell activity” (The Board of Trustees of the Leland Stanford Junior …, priority 2019, dated 2023).
Residues, ends and D or L forms follow the SMILES beside them. *: point of attachment. Cbz = O=C(OCc1ccccc1)*

Key:
Format in all cases: cell-based
RET [1] = target: T1, RET (Homo sapiens, UniProt P07949); assay: RET phosphorylation at Y1062 in non-transformed human skin organoids (Western blot); details: non-transformed human skin organoids grown 7 days on dermis, BLU-667 15 nM vs DMSO
T1 construct: endogenous in cells; host or cells: human skin organoids from primary human keratinocytes seeded on devitalized human dermis
Excerpt: (§1) As loss of differentiation may be coupled to other cancer-enabling behaviors, we next considered the therapeutic implications of aberrant RET activation in SCC. […] We next used MAB21L4-intact or MAB21L4-ablated primary human keratinocytes to generate skin organoids programmed to undergo invasive neoplasia by oncogenic Ras and Cdk4. These neoplastic tissues were maintained in culture medium containing BLU-667 to investigate the contribution of RET to SCC development.
Human Skin Organoids and Skin Xenografts Generation of human skin organoids was performed as previously described. […] To generate organotypic invasive epidermal neoplasia, devitalized human dermis was populated with human primary fibroblasts at least 1 week prior to keratinocyte seeding. Keratinocytes were transduced with oncogenic HRas as well as Cdk4 and seeded onto fibroblast-containing dermis. Neoplastic tissues were harvested for analysis up to 14 days post-seeding.
Western Blotting Cells and organoids were both lysed in RIPA buffer (Thermo Fisher Scientific) supplemented with phosphatase inhibitor and protease inhibitor cocktails (Sigma-Aldrich). For human skin organoids, the epidermis was separated from the dermis, immersed in RIPA buffer, and subjected to 4 cycles of disruption using the gentleMACS Dissociator (Miltenyi Biotec). […]

[2] = system: oncogenic Ras-transformed human skin organoids; assay: Neoplastic invasion in human skin organoids transformed by oncogenic Ras and Cdk4
Excerpt: as §1
(§2) To test this, we assessed neoplastic invasion in human skin organoids with BLU-667 added to the culture medium after early malignant transformation occurred. […] Human skin tissues undergoing malignant transformation by enforced expression of oncogenic Ras and Cdk4 were then subjected to BLU-667 treatment following the onset of early neoplastic invasion.
(§3) Human Skin Organoids and Skin Xenografts Generation of human skin organoids was performed as previously described. Briefly, 1×10^6 keratinocytes were seeded onto a 1 cm^2 section of devitalized human dermis and cultured at the air-liquid interface for up to 6 days for differentiation studies. To generate organotypic invasive epidermal neoplasia, devitalized human dermis was populated with human primary fibroblasts at least 1 week prior to keratinocyte seeding. Keratinocytes were transduced with oncogenic HRas as well as Cdk4 and seeded onto fibroblast-containing dermis. Neoplastic tissues were harvested for analysis up to 14 days post-seeding.
Immunofluorescence Human skin organoids were embedded in Optimal Cutting Temperature (OCT) compound (Sakura Finetek) and 7 μm tissue sections were mounted onto polylysine slides (Thermo Scientific). Tissue cryosections were fixed in 100% methanol at −20° C. for 10 min and subsequently permeabilized by incubation with 0.1% Triton X-100 (Sigma-Aldrich) in PBS. The tissues were then incubated for 30 minutes at room temperature with blocking buffer (horse serum diluted 1:10 in PBS) and then for 1 hour with primary antibodies diluted in 0.05% Triton X-100 (Sigma-Aldrich) and 1:100 horse serum in PBS. […]
Images of several zstacks were acquired and the maximum intensity projection image was generated by using the Fiji-ImageJ package. Invasion index was calculated as integrated density of the Keratin 5 staining underneath the basement membrane divided by the length of the basement membrane. Integrated density and basement membrane length were both analyzed using the Fiji-ImageJ package. The invasion depth was calculated as the distance between the basement membrane and the most distant invading cell in each field of view analyzed. The distance between the basement membrane and the most distant invading cell was analyzed in 3 areas of each field of view using the Fiji-ImageJ package and was averaged. […]

human skin organoids = assay: Stratification and epidermal thickness of organotypic human epidermis under BLU-667 (immunofluorescence); details: vs vehicle (DMSO)
Excerpt: as §1, §2
as §3, with “Neoplastic tissues were harvested for analysis up to 14 days post-seeding.” left out

RET [3] = assay: RET expression in normal human skin organoids treated with proteasome inhibitor (Western blot); details: normal skin organoids grown 3 days on dermis, MG132 20 μM for 12 hrs vs DMSO
Excerpt: Given the proximity of CacyBP and RET, we wondered whether RET stability in the skin might be regulated by ubiquitination. Fluorescent PLA signal generated by RET and ubiquitin proximity was abolished in MAB21L4-ablated epidermis using two independent sgRNAs (FIG. 5f,g). […] Loss of MAB21L4, such as occurs in cancer, would stabilize RET by preventing its Siah1-mediated degradation and may explain RET upregulation in SCC.
as §3
Western Blotting Cells and organoids were both lysed in RIPA buffer (Thermo Fisher Scientific) supplemented with phosphatase inhibitor and protease inhibitor cocktails (Sigma-Aldrich). […]

[4] = MAB21L4-intact or MAB21L4-ablated Ras/Cdk4 organoids, 7 days in medium containing BLU-667 15 nM
[5] = Ras/Cdk4 organoids, BLU-667 15 nM initiated on day 7 after early invasion, analysed day 14, vs vehicle

T1 sequence (P07949 29-1114): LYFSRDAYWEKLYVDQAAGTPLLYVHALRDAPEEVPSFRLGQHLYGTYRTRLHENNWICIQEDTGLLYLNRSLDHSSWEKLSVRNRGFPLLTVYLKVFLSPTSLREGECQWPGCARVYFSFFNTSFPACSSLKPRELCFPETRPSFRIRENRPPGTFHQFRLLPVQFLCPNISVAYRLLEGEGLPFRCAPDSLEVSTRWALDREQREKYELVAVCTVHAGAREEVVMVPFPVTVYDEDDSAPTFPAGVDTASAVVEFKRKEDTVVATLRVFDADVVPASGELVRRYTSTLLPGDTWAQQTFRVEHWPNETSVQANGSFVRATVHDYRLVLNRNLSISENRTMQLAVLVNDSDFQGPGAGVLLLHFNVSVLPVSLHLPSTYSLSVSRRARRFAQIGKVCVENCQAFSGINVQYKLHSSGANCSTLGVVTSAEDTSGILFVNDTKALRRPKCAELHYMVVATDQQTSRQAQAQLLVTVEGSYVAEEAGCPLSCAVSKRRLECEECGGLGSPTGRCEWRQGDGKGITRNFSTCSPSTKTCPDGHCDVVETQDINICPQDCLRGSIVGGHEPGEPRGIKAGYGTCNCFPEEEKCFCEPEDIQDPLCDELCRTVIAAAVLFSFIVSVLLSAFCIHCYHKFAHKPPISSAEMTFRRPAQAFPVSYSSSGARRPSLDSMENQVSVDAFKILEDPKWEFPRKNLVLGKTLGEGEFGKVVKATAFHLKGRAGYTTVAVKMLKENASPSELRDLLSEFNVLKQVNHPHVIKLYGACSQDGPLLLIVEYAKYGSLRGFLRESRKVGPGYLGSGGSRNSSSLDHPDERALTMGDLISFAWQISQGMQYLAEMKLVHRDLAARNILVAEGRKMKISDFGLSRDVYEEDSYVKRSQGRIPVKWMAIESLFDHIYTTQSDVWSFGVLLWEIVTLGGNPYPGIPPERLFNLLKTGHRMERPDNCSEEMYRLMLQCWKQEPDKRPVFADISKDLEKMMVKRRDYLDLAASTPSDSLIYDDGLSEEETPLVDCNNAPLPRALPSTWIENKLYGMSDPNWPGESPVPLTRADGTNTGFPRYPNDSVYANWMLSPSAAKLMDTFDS

| SMILES | RET phosphorylation at Y1062 (suppression of RET signaling) (RET [1]) | basement membrane degradation [2, 4] | neoplastic invasion (invasion index) [2, 4] | keratinocytes below the basement membrane (invasion index), established invasion [2, 5] | tumor infiltration depth (invasion depth), established invasion [2, 5] | epidermal stratification and thickness (human skin organoids; late-onset treatment: BLU-667 15 nM initiated on day 7, 14 days of growth) | stratification and epidermal thickness (human skin organoids; organoids cultured in continuous presence of BLU-667 15 nM, 7 days) | RET expression (RET [3]) |
| --- | --- | --- | --- | --- | --- | --- | --- | --- |
| CO[C@]1(C(=O)N[C@@H](C)c2ccc(-n3cc(F)cn3)nc2)CC[C@H](c2nc(C)cc(Nc3cc(C)[nH]n3)n2)CC1 [BLU-667] | reduction in RET phosphorylation at Y1062 | prevented basement membrane degradation | suppressed invasion accelerated by MAB21L4 loss | fewer keratinocytes below the basement membrane | reduction in tumor infiltration depth | did not adversely affect epidermal stratification and thickness | did not differ substantially from vehicle controls |  |
| CC(C)C[C@@H](C=O)NC(=O)[C@H](CC(C)C)NC(=O)[C@H](CC(C)C)NC(=O)OCc1ccccc1 [MG132] (Cbz-Leu-Leu-Leu-aldehyde) |  |  |  |  |  |  |  | RET accumulation |
